Source: PubChem BioAssay (NCI)
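Five compound concentrations were applied to cells in 96-well plates for 48 hours; endpoints were derived by simple linear interpolation of the resulting dose-response curve. TGI denotes the concentration required for complete inhibition of growth.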

Experiments:
Assay in all cases: NCI anticancer screen, dose series, 48 h
RPMI-8226 leukemia = test system: RPMI-8226 leukemia
SNB-75 CNS = test system: SNB-75 CNS
UACC-62 melanoma = test system: UACC-62 melanoma
MDA-N = test system: MDA-N
OVCAR-8 ovarian = test system: OVCAR-8 ovarian
SK-MEL-2 melanoma = test system: SK-MEL-2 melanoma
MDA-MB-435 = test system: MDA-MB-435
NCI-H522 lung = test system: NCI-H522 lung
SR leukemia = test system: SR leukemia
OVCAR-4 ovarian = test system: OVCAR-4 ovarian
LOX IMVI melanoma = test system: LOX IMVI melanoma
NCI/ADR-RES ovarian = test system: NCI/ADR-RES ovarian
UO-31 renal = test system: UO-31 renal
TK-10 renal = test system: TK-10 renal
OVCAR-5 ovarian = test system: OVCAR-5 ovarian
HCT-116 colon = test system: HCT-116 colon
PC-3 prostate = test system: PC-3 prostate
OVCAR-3 ovarian = test system: OVCAR-3 ovarian
NCI-H226 lung = test system: NCI-H226 lung
HOP-62 NSCLC = test system: HOP-62 NSCLC
A549 NSCLC = test system: A549 NSCLC
T-47D breast = test system: T-47D breast
786-0 renal = test system: 786-0 renal
ACHN renal = test system: ACHN renal
RXF 393 renal = test system: RXF 393 renal
K-562 leukemia = test system: K-562 leukemia
HCT-15 colon = test system: HCT-15 colon
SNB-19 CNS = test system: SNB-19 CNS
U251 CNS = test system: U251 CNS
MDA-MB-231 breast = test system: MDA-MB-231 breast
CAKI-1 renal = test system: CAKI-1 renal
SF-268 CNS = test system: SF-268 CNS
SN12C renal = test system: SN12C renal
BT-549 breast = test system: BT-549 breast
M14 melanoma = test system: M14 melanoma
NCI-H23 lung = test system: NCI-H23 lung
SW-620 colon = test system: SW-620 colon
HOP-92 NSCLC = test system: HOP-92 NSCLC
KM12 colon = test system: KM12 colon
COLO 205 colon = test system: COLO 205 colon
DU-145 prostate = test system: DU-145 prostate
CCRF-CEM leukemia = test system: CCRF-CEM leukemia
SF-295 CNS = test system: SF-295 CNS
EKVX NSCLC = test system: EKVX NSCLC
HT29 colon = test system: HT29 colon
SK-MEL-28 melanoma = test system: SK-MEL-28 melanoma
MOLT-4 leukemia = test system: MOLT-4 leukemia
IGROV1 ovarian = test system: IGROV1 ovarian
SK-OV-3 ovarian = test system: SK-OV-3 ovarian
MALME-3M melanoma = test system: MALME-3M melanoma
SK-MEL-5 melanoma = test system: SK-MEL-5 melanoma
HS 578T breast = test system: HS 578T breast
HL-60(TB) leukemia = test system: HL-60(TB) leukemia
UACC-257 melanoma = test system: UACC-257 melanoma
NCI-H460 lung = test system: NCI-H460 lung
SF-539 CNS = test system: SF-539 CNS
A498 renal = test system: A498 renal
HCC-2998 colon = test system: HCC-2998 colon

For `Oc1ccc2ccccc2c1N=Nc1ccc(Br)cc1`, the TGI (RPMI-8226 leukemia) was over 100 µM, the TGI (SNB-75 CNS) was over 100 µM and the TGI (UACC-62 melanoma) was over 100 µM. The TGI (MDA-N) was over 100 µM, the TGI (OVCAR-8 ovarian) was over 100 µM and the TGI (SK-MEL-2 melanoma) was over 100 µM. For the same molecule, the TGI (MDA-MB-435) was over 100 µM, the TGI (NCI-H522 lung) was over 100 µM and the TGI (SR leukemia) was over 100 µM. It also gave a TGI (OVCAR-4 ovarian) of 96.3 µM, a TGI (LOX IMVI melanoma) of over 100 µM and a TGI (NCI/ADR-RES ovarian) of over 100 µM. For the same molecule, the TGI (UO-31 renal) was over 100 µM, the TGI (TK-10 renal) was over 100 µM and the TGI (OVCAR-5 ovarian) was over 100 µM. It also gave a TGI (HCT-116 colon) of over 100 µM, a TGI (PC-3 prostate) of over 100 µM and a TGI (OVCAR-3 ovarian) of over 100 µM. For the same molecule, the TGI (NCI-H226 lung) was over 100 µM, the TGI (HOP-62 NSCLC) was over 100 µM and the TGI (A549 NSCLC) was over 100 µM. It also gave a TGI (T-47D breast) of over 100 µM, a TGI (786-0 renal) of over 100 µM and a TGI (ACHN renal) of over 100 µM. It also gave a TGI (RXF 393 renal) of over 100 µM, a TGI (K-562 leukemia) of over 100 µM and a TGI (HCT-15 colon) of over 100 µM. It also gave a TGI (SNB-19 CNS) of over 100 µM, a TGI (U251 CNS) of over 100 µM and a TGI (MDA-MB-231 breast) of over 100 µM. It also gave a TGI (CAKI-1 renal) of over 100 µM, a TGI (SF-268 CNS) of over 100 µM and a TGI (SN12C renal) of over 100 µM. The TGI (BT-549 breast) was over 100 µM, the TGI (M14 melanoma) was over 100 µM and the TGI (NCI-H23 lung) was over 100 µM. The TGI (SW-620 colon) was over 100 µM, the TGI (HOP-92 NSCLC) was over 100 µM and the TGI (KM12 colon) was over 100 µM. For the same molecule, the TGI (COLO 205 colon) was over 100 µM, the TGI (DU-145 prostate) was over 100 µM and the TGI (CCRF-CEM leukemia) was over 100 µM. For the same molecule, the TGI (SF-295 CNS) was over 100 µM, the TGI (EKVX NSCLC) was over 100 µM and the TGI (HT29 colon) was over 100 µM. The TGI (SK-MEL-28 melanoma) was over 100 µM, the TGI (MOLT-4 leukemia) was over 100 µM and the TGI (IGROV1 ovarian) was over 100 µM. For the same molecule, the TGI (SK-OV-3 ovarian) was over 100 µM, the TGI (MALME-3M melanoma) was over 100 µM and the TGI (SK-MEL-5 melanoma) was over 100 µM. The TGI (HS 578T breast) was over 100 µM, the TGI (HL-60(TB) leukemia) was over 100 µM and the TGI (UACC-257 melanoma) was over 100 µM.
`COC(C)(C)OCCN1CCN(CCN2C3=C(C=C(C(C)=O)C3)Sc3ccccc32)CC1` showed a TGI (RPMI-8226 leukemia) of 32.8 µM, a TGI (SNB-75 CNS) of over 100 µM and a TGI (UACC-62 melanoma) of 29.4 µM. For the same molecule, the TGI (MDA-N) was 36.5 µM, the TGI (OVCAR-8 ovarian) was 42.1 µM and the TGI (SK-MEL-2 melanoma) was 41.4 µM. For the same molecule, the TGI (MDA-MB-435) was 30.9 µM, the TGI (NCI-H522 lung) was 33.2 µM and the TGI (SR leukemia) was 33.2 µM. The TGI (OVCAR-4 ovarian) was over 100 µM, the TGI (LOX IMVI melanoma) was 42.2 µM and the TGI (NCI/ADR-RES ovarian) was 50.2 µM. It also gave a TGI (UO-31 renal) of 43.1 µM, a TGI (TK-10 renal) of 34.6 µM and a TGI (OVCAR-5 ovarian) of 59.1 µM. It also gave a TGI (HCT-116 colon) of 33.6 µM, a TGI (PC-3 prostate) of 72.9 µM and a TGI (OVCAR-3 ovarian) of 45.8 µM. For the same molecule, the TGI (NCI-H226 lung) was 65.6 µM, the TGI (HOP-62 NSCLC) was 36.2 µM and the TGI (A549 NSCLC) was 96.7 µM. It also gave a TGI (T-47D breast) of over 100 µM, a TGI (786-0 renal) of 36 µM and a TGI (ACHN renal) of 35.5 µM. The TGI (RXF 393 renal) was 42.2 µM, the TGI (K-562 leukemia) was 32.2 µM and the TGI (HCT-15 colon) was 40.9 µM. For the same molecule, the TGI (SNB-19 CNS) was 93.3 µM, the TGI (U251 CNS) was 35.2 µM and the TGI (MDA-MB-231 breast) was 52.4 µM. For the same molecule, the TGI (CAKI-1 renal) was 48.2 µM, the TGI (SF-268 CNS) was 43.2 µM and the TGI (SN12C renal) was 69.8 µM. For the same molecule, the TGI (BT-549 breast) was 44.1 µM, the TGI (NCI-H460 lung) was 35.5 µM and the TGI (M14 melanoma) was 40.4 µM. The TGI (NCI-H23 lung) was 73.5 µM, the TGI (SW-620 colon) was 37.2 µM and the TGI (HOP-92 NSCLC) was 92.9 µM. The TGI (KM12 colon) was 32.6 µM, the TGI (COLO 205 colon) was 33.4 µM and the TGI (DU-145 prostate) was 68.8 µM. The TGI (CCRF-CEM leukemia) was 32.4 µM, the TGI (SF-295 CNS) was 36.7 µM and the TGI (EKVX NSCLC) was over 100 µM. For the same molecule, the TGI (HT29 colon) was 33.2 µM, the TGI (SK-MEL-28 melanoma) was 32.9 µM and the TGI (MOLT-4 leukemia) was 36.7 µM. It also gave a TGI (SF-539 CNS) of 39.8 µM, a TGI (IGROV1 ovarian) of 35.5 µM and a TGI (A498 renal) of 34 µM. The TGI (SK-OV-3 ovarian) was 79.8 µM, the TGI (HCC-2998 colon) was 36.2 µM and the TGI (MALME-3M melanoma) was 36.6 µM. For the same molecule, the TGI (SK-MEL-5 melanoma) was 32 µM, the TGI (HS 578T breast) was 36.5 µM and the TGI (HL-60(TB) leukemia) was 35.8 µM. The TGI (UACC-257 melanoma) was 36.9 µM.
